# Measurements taken from patent US20260315446A1, “ANTIFUNGAL COMPOUNDS AND USES THEREOF” (priority 2023, published 2026).
# “Also recorded” adds a separate entry of the source.
# Legend:
# [1] = test system: Aspergillus fumigatus (akuBKu80 hFKBP12); assay: MIC/MEC against humanized A. fumigatus strain; format: cell-based
# Experimental: To confirm that JH-FK-05 was fungal FKBP12-dependent, a humanized A. fumigatus strain (the akuB^Ku80 hFKBP12 strain) expressing a codon-optimized human FKBP12 gene from the Affkbp12 native locus was utilized.
# In vitro antifungal activities of FK506, FK520, and analogs were assessed in RPMI 1640 (Sigma-Aldrich) for all strains tested. MICs/minimum effective concentrations (MECs) for each drug were measured using modified Clinical and Laboratory Standards Institute (CLSI) M38-A2 and M27-A3 standard in vitro antifungal susceptibility protocols. Broth microdilution assays for MIC/MEC assessment were performed as described previously (see, Juvvadi P R, et al., 2019, Nat Commun 10:4275). All antifungal assays with C. neoformans were performed at 37° C. Antifungal susceptibility testing for C. albicans was performed in the presence of a uniform 1 μg/mL concentration of fluconazole to sensitize the organism to calcineurin inhibition.
# [2] = test system: C. neoformans H99; assay: Intranasal model of pulmonary cryptococcosis, lung fungal burden (Example 1); format: in vivo, Cryptococcus neoformans in A/J mice; conditions: day 14; JH-FK-05 60 mg/kg, fluconazole 12 mg/kg, i.p. daily
# Experimental: First, in the intranasal model, animals were anesthetized and infected with 10^5 cells of wild-type H99 C. neoformans via instillation in the animal's nares. These animals were monitored for 14 days and then sacrificed. This model tests the efficacy of JH-FK-05 to treat a pulmonary infection, which is the most common manifestation of early-stage cryptococcosis in patients. […] In both models, animals were treated once daily via i.p. injection beginning 3 h after infection with either vehicle, 60 mg/kg JH-FK-05, 12 mg/kg fluconazole, or a combination of the two monotherapies.
# Wild-type H99 C. neoformans cells were grown overnight at 30° C. in a roller drum in yeast extract-peptone-dextrose (YPD) medium. […] H99 cells were counted with a hemacytometer and diluted to 2×10^6 cells/mL in PBS for the pulmonary model and 2×10^5 cells/mL in PBS for the disseminated model.
# Female A/J mice (3 to 4 weeks old; Jackson Laboratory) were anesthetized utilizing an isoflurane chamber. […] After 14 days, animals were either sacrificed for fungal burden analysis or monitored for health and survival until reaching a humane endpoint.
# Mice were euthanized by CO2 inhalation at the predetermined experimental endpoint. […] A 100-μL aliquot of each dilution was plated on antibiotic plates (YPD, 50 μg/mL ampicillin, and 30 g/mL chloramphenicol), incubated for 48 to 72 h at 30° C., and assessed for CFU. […]
# [3] = test system: C. neoformans strain H99; assay: Murine cryptococcal infection, lung fungal burden (Example 3); format: in vivo, Cryptococcus neoformans in A/J mice; conditions: once daily; fluconazole 12 mg/kg, JH-FK-08 40 mg/kg
# Experimental: In vivo antifungal activity and therapeutic benefit were assayed by investigating the impact of the FK520 analog on organ fungal burden during cryptococcosis. Specifically, the in vivo efficacy of JH-FK-08 on fungal burden was assessed using A/J female mice. Immunodeficient A/J mice were selected in part due to their defect in complement component five and their susceptibility to cryptococcal infection. Treatment groups included vehicle of 10% Kolliphor: ethanol (1:1) in phosphate-buffered saline (PBS), […], or the fluconazole and JH-FK-08 combination, […] infection. […] Mice were intranasally infected with C. neoformans strain H99, and fungal burden in the lung, spleen, and brain was assessed after 14 days of treatment.
# (§1) C. neoformans inoculum was prepared by growing a 5-mL overnight YPD culture spinning in a tissue culture roller drum at 30° C. Cells were pelleted by centrifugation and washed in sterile PBS three times. Cell density was determined by hemocytometer, and cells were diluted to 2×10^6 cells/mL. Mice (10 to 20 g) were infected with 10^5 cells of C. neoformans H99. For inhalation infection, animals were anesthetized with isoflurane before 50 μL of inoculum was pipetted onto the upright nasal passages of each animal. Following inhalation of the inoculum, animals were monitored for post anesthesia recovery. Treatment of animals began 4 hours post infection and was continued for 14 days. Fungal burden was assessed 24 h after the final dose.
# For survival curve analysis, animals were monitored until reaching defined humane end points, including social isolation, hunched posture, weight loss, lack of grooming, and labored breathing, and were then euthanized via CO2 inhalation. […] One hundred microliters of each dilution was plated on YPD plates supplemented with YPD 50 μg/mL ampicillin and 30 μg/mL chloramphenicol, incubated at 30° C. for 2 days, and assessed for colony-forming units. CFU per organ weight was calculated and plotted using GraphPad Prism 9.
# [4] = test system: C. neoformans strain H99; assay: Survival during cryptococcal infection (Example 3); format: in vivo, Cryptococcus neoformans in A/J mice
# Experimental: Finally, whether the antifungal efficacy translates into extended survival during infection was assessed. To test the impact of treatment on survival, murine survival was monitored in the cryptococcosis infection model. Following the same protocol of infection and dosing as in the fungal burden experiment, animal survival was monitored following infection and 2 weeks of intraperitoneal dosing. Fluconazole treatment extended median survival from 16 to 27 days.
# as §1
# For survival curve analysis, animals were monitored until reaching defined humane end points, including social isolation, hunched posture, weight loss, lack of grooming, and labored breathing, and were then euthanized via CO2 inhalation. For fungal burden analysis, mice were euthanized following 2 weeks of treatment with a designated antifungal, vehicle, or combination. Brain, lung, and spleen were harvested from animals, weighed, and homogenized in sterile PBS using steel beads and a bead beater. Each organ homogenate was serially diluted 10-fold to 10-4 in PBS. One hundred microliters of each dilution was plated on YPD plates supplemented with YPD 50 μg/mL ampicillin and 30 μg/mL chloramphenicol, incubated at 30° C. for 2 days, and assessed for colony-forming units. CFU per organ weight was calculated and plotted using GraphPad Prism 9.
# [5] = test system: C. neoformans strain H99; assay: Histopathological analysis of lung tissue; format: in vivo, Cryptococcus neoformans in A/J mice; conditions: infected lung, PAS and H&E staining
# [6] = test system: Aspergillus fumigatus (akuBKu80 hFKBP12); conditions: previously shown; cited from earlier work
# [7] = test system: IL-2 expression in primary mouse CD4+ T cells (mammalian calcineurin); conditions: previous studies; cited from earlier work
structure (smiles),measurement,setting,value
CC[C@@H]1/C=C(\C)C[C@H](C)C[C@H](OC)[C@H]2O[C@@](O)(C(=O)C(=O)N3CCCC[C@H]3C(=O)O[C@H](/C(C)=C/[C@@H]3CC[C@@H](O)[C@H](OC)C3)[C@H](C)[C@@H](O)C/C1=N/NC(C)=O)[C@H](C)C[C@@H]2OC [JH-FK-05],antifungal activity against hFKBP12-expressing A. fumigatus strain,[1],no detectable antifungal activity
same,MIC/MEC,[1]; strain akuBKu80 hFKBP12,>8 µg/mL
same,reduction of lung fungal burden,[2],~10 fold
CC[C@@H]1/C=C(\C)C[C@H](C)C[C@H](OC)[C@H]2O[C@@](O)(C(=O)C(=O)N3CCCC[C@H]3C(=O)O[C@H](/C(C)=C/C3CC[C@@H](O)[C@H](OC)C3)[C@H](C)[C@@H](O)C/C1=N/NC(=O)OC)[C@H](C)C[C@@H]2OC (stereo partly shown) [JH-FK-08],lung fungal burden reduction,[3],limited efficacy in reducing lung fungal burden
same,survival compared to vehicle/untreated,"[4]; 2 weeks twice daily i.p. 40 mg/kg, 40 mg/kg",more than doubled median survival; also recorded: more than double murine survival time
same,median survival,"[4]; 2 weeks twice daily i.p., fluconazole 6 mg/kg, JH-FK-08 40 mg/kg, vehicle 16 days",33 days
same,combination effect with fluconazole,[4]; in vivo,additive activity in combination with fluconazole in vivo
same,inflammatory response in lung tissue,[5],expected granulomatous inflammatory response admixed with mature lymphocytes and neutrophils
"C=CCC1C=C(C)CC(C)CC(OC)C2OC(O)(C(=O)C(=O)N3CCCCC3C(=O)OC(C(C)=CC3CCC(O)C(OC)C3)C(C)C(O)CC1=O)C(C)CC2OC (stereo not shown) [FK506, reference compound]",resistance of hFKBP12-expressing strain,[6],completely resistant
same,effect on T cells,[7],cytotoxic and reduce the proliferation of T cells
